The source of these data is patent US9637453B2, “3-spirocyclic-6-hydroxamic acid tetralins as HDAC inhibitors” (Forma Therapeutics, Inc., priority 2015, dated 2017).

Where only a bound is given, the exact number is not on record here.

Assay [1] deals with T1, Full length human recombinant HDAC6 (Homo sapiens, UniProt Q9UBN7).
T1 construct: Full length human recombinant HDAC6 and HDAC11 proteins were expressed in baculoviral system
T1 sequence (Q9UBN7 1-1215): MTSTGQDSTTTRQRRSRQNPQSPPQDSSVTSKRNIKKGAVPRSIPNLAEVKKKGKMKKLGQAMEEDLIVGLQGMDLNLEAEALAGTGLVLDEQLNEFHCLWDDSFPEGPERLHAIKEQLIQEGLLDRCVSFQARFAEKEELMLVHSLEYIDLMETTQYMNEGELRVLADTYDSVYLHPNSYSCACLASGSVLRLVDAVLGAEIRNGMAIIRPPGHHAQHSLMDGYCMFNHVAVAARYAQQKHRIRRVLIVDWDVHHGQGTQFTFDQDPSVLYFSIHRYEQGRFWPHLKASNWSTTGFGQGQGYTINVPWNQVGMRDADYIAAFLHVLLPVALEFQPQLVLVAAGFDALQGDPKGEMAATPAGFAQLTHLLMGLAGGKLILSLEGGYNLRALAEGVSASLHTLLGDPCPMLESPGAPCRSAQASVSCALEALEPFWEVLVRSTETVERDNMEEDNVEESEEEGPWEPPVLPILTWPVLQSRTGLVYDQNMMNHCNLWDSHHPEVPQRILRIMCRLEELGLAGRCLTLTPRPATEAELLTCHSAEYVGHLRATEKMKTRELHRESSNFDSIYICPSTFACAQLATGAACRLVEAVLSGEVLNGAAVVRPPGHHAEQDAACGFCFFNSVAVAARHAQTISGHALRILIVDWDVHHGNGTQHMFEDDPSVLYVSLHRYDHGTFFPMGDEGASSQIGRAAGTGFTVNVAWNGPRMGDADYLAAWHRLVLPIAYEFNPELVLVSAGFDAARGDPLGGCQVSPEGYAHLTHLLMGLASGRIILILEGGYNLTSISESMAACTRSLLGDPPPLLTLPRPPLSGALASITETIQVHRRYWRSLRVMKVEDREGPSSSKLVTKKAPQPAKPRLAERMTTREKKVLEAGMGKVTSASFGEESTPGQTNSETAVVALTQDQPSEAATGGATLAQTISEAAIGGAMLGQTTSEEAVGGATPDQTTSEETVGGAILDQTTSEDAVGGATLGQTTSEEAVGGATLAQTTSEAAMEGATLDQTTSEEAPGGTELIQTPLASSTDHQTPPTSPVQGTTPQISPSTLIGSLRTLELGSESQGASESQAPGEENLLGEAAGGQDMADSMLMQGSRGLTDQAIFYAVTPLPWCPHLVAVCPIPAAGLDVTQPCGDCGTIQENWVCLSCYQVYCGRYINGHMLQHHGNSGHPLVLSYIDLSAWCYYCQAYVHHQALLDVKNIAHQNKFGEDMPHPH
Kind of assay: In vitro histone deacetylase assay, enzymatic HDAC6 (electrophoretic mobility shift assay). Format: biochemical. The conditions noted are these: 1 nM HDAC6; 2 μM peptide substrate FAM-RHKK(Ac)—NH2; 25° C.; 12 concentrations; read-out: HDAC6 Activity Range (IC50). As for the experimental part: (§1) The enzymatic HDAC6 and HDAC11 assays were performed using electrophoretic mobility shift assay. Full length human recombinant HDAC6 and HDAC11 proteins were expressed in baculoviral system and purified by affinity chromatography. The enzymatic reactions were assembled in 384 well plates in a total volume of 25 μL in a reaction buffer composing: 100 mM HEPES, pH 7.5, 25 mM KCl, 0.1% bovine serum albumin, 0.01% Triton X-100, 1% DMSO (from compounds) 2 μM of the fluorescently labeled peptide substrate and enzyme. The enzymes were added at a final concentration of 1 nM for HDAC6, and 10 nM for HDAC11. The peptide substrate FAM-RHKK(Ac)—NH2 was used for HDAC6, and FAM-RHKK(tri-fluor-Ac)—NH2 for HDAC11. The compounds were tested at 12 concentrations spaced by 3× dilution intervals. Negative control samples (0%-inhibition in the absence of inhibitor) and positive control samples (100%-inhibition) were assembled in replicates of four in each assay plate. The reactions were incubated at 25° C. and quenched by the addition of 45 μL of termination buffer (100 mM HEPES, pH 7.5, 0.01% Triton X-100, 0.05% SDS).
(§2) The terminated assay plates were analyzed on LabChip® 3000 microfluidic electrophoresis instrument (Perkin Elmer/Caliper Life Sciences). The fluorescence intensity of the electrophoretically separated de-acetylated product and substrate peptide was measured. Activity in each sample was determined as the product to sum ratio (PSR): P/(S+P), where P is the peak height of the product peptide and S is the peak height of the substrate peptide. Percent inhibition (Pinh) is determined using following equation:
(§3) Pinh=(PSR0%−PSRinh)/(PSR0%−PSR100%)*100, where PSRinh is the product sum ratio in the presence of inhibitor, PSR0% is the average product sum ration in the absence of inhibitor and PSR100% is the average product sum ratio in 100%-inhibition control samples. The IC50 values of inhibitors were determined by fitting the %-inhibition curves with 4 parameter dose-response model using XLfit 4 software.
(§4) As set forth in Table-26 and Table-27, below, IC5o values are defined as follows: IC50≦0.1 μM (+++); IC50>0.1 μM and ≦0.5 μM (++); IC50>0.5 μM (+).
A general note: A gel shift assay detects complexes by their altered migration in electrophoresis.

In assay [2] the target is T2, Full length human recombinant HDAC11 (Homo sapiens, UniProt Q96DB2).
T2 construct: Full length human recombinant HDAC6 and HDAC11 proteins were expressed in baculoviral system
T2 sequence (Q96DB2 1-347): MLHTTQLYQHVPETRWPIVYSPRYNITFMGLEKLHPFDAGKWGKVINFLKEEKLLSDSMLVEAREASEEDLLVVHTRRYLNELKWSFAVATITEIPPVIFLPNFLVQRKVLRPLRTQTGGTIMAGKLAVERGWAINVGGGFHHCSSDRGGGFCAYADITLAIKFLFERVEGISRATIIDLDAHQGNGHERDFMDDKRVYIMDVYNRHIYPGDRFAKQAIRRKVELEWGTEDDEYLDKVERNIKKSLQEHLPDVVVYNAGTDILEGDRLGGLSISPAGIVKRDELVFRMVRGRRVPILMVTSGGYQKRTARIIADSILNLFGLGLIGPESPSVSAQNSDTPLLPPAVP
Kind of assay: In vitro histone deacetylase assay, enzymatic HDAC11 (electrophoretic mobility shift assay). In kind it is biochemical. The conditions noted are these: 10 nM HDAC11; 2 μM peptide substrate FAM-RHKK(tri-fluor-Ac)—NH2; 25° C.; 12 concentrations; read-out: HDAC11 Activity Range (IC50). As for the experimental part: as §1, §2, §3, §4

A word on the IC50: it is the concentration at which inhibition is half-maximal. Turning to `O=CN1CCC2(CCc3ccc(C(=O)NO)cc3C2)C1` (centres unmarked) [Compound I-10, 1′-formyl-N-hydroxy-3,4-dihydro-1H-spiro[naphthalene-2,3′-pyrrolidine]-7-carboxamide], the results for the half-maximal inhibitory concentration (IC50) in assay [1] and in assay [2] were no more than 100 nM and greater than 500 nM, respectively.

As to `CC(C)N1CCC2(CCc3ccc(C(=O)NO)cc3C2)C1` (centres unmarked) [Compound I-11, N-hydroxy-1′-isopropyl-3,4-dihydro-1H-spiro[naphthalene-2,3′-pyrrolidine]-7-carboxamide], the half-inhibitory concentration (IC50) was 100 to 500 nM in assay [1] and greater than 500 nM in assay [2].

On to `CC(=O)N1CCC2(CCc3ccc(C(=O)NO)cc3C2)C1` (centres unmarked) [Compound I-12, 1′-acetyl-N-hydroxy-3,4-dihydro-1H-spiro[naphthalene-2,3′-pyrrolidine]-7-carboxamide], for which the IC50 in assay [1] is no more than 100 nM; in assay [2], greater than 500 nM.

As to `CS(=O)(=O)N1CCC2(CCc3ccc(C(=O)NO)cc3C2)C1` (centres unmarked) [Compound I-13, N-hydroxy-1′-(methylsulfonyl)-3,4-dihydro-1H-spiro[naphthalene-2,3′-pyrrolidine]-7-carboxamide], the values for the IC50 in assay [1] and in assay [2] were no more than 100 nM and greater than 500 nM, respectively.

For the compound `COc1cccc(CN2CCC3(CCc4ccc(C(=O)NO)cc4C3)C2)c1` (centres unmarked) [Compound I-14, N-hydroxy-1′-(3-methoxybenzyl)-3,4-dihydro-1H-spiro[naphthalene-2,3′-pyrrolidine]-7-carboxamide], the results for the half-maximal inhibitory concentration (IC50) in assay [1] and in assay [2] were no more than 100 nM and greater than 500 nM, respectively.

Consider `COc1ccccc1CN1CCC2(CCc3ccc(C(=O)NO)cc3C2)C1` (centres unmarked) [Compound I-15, N-hydroxy-1′-(2-methoxybenzyl)-3,4-dihydro-1H-spiro[naphthalene-2,3′-pyrrolidine]-7-carboxamide], for which the concentration for half-maximal inhibition (IC50) in assay [1] is no more than 100 nM; in assay [2], greater than 500 nM.

Regarding `O=C(NO)c1ccc2c(c1)C[C@@]1(CC2)CCN(c2ccccc2)C1` [Compound I-16, (S)—N-hydroxy-1′-phenyl-3,4-dihydro-1H-spiro[naphthalene-2,3′-pyrrolidine]-7-carboxamide], the figures for the IC50 in assay [1] and in assay [2] were no more than 100 nM and greater than 500 nM, respectively.

Consider `O=C(NO)c1ccc2c(c1)C[C@]1(CC2)CCN(c2ccccc2)C1` [Compound I-17, (R)—N-hydroxy-1′-phenyl-3,4-dihydro-1H-spiro[naphthalene-2,3′-pyrrolidine]-7-carboxamide], for which the IC50 in assay [1] is no more than 100 nM; in assay [2], greater than 500 nM.

`CN1CC[C@@]2(CCc3ccc(C(=O)NO)cc3C2)C1` [Compound I-18, (S)—N-hydroxy-1′-methyl-3,4-dihydro-1H-spiro[naphthalene-2,3′-pyrrolidine]-7-carboxamide]: the 50% inhibitory concentration (IC50) in assay [1] was 100 to 500 nM; in assay [2], greater than 500 nM.

With `CN1CC[C@]2(CCc3ccc(C(=O)NO)cc3C2)C1` [Compound I-19, (R)—N-hydroxy-1′-methyl-3,4-dihydro-1H-spiro[naphthalene-2,3′-pyrrolidine]-7-carboxamide], the results for the concentration for half-maximal inhibition (IC50) in assay [1] and in assay [2] were 100 to 500 nM and greater than 500 nM, respectively.

`COc1ccc(CCN2CCC3(CCc4ccc(C(=O)NO)cc4C3)C2=O)cc1` (centres unmarked) [Compound I-20, N-hydroxy-1′-(4-methoxyphenethyl)-2′-oxo-3,4-dihydro-1H-spiro[naphthalene-2,3′-pyrrolidine]-7-carboxamide]: the IC50 is no more than 100 nM in assay [1] and 100 to 500 nM in assay [2].

For `O=C(NO)c1ccc2c(c1)CC1(CC2)CCN(Cc2ccc(Cl)c(Cl)c2)C1=O` (centres unmarked) [Compound I-21, 1′-(3,4-dichlorobenzyl)-N-hydroxy-2′-oxo-3,4-dihydro-1H-spiro[naphthalene-2,3′-pyrrolidine]-7-carboxamide], the IC50 in assay [1] and in assay [2] was no more than 100 nM throughout.

With `O=C(NO)c1ccc2c(c1)CC1(CC2)CCN(Cc2ccncc2)C1=O` (centres unmarked) [Compound I-22, N-hydroxy-2′-oxo-1′-(pyridin-4-ylmethyl)-3,4-dihydro-1H-spiro[naphthalene-2,3′-pyrrolidine]-7-carboxamide], the 50% inhibitory concentration (IC50) is no more than 100 nM in assay [1] and greater than 500 nM in assay [2].

In the case of `O=C(NO)c1ccc2c(c1)CC1(CC2)CCN(CC2CCCCC2)C1=O` (centres unmarked) [Compound I-23, 1′-(cyclohexylmethyl)-N-hydroxy-2′-oxo-3,4-dihydro-1H-spiro[naphthalene-2,3′-pyrrolidine]-7-carboxamide], the IC50 was no more than 100 nM in assay [1] and 100 to 500 nM in assay [2].

As for `CC(C)N1CCC2(CCc3ccc(C(=O)NO)cc3C2)C1=O` (centres unmarked) [Compound I-24, N-hydroxy-1′-isopropyl-2′-oxo-3,4-dihydro-1H-spiro[naphthalene-2, 3′-pyrrolidine]-7-carboxamide], the values for the half-inhibitory concentration (IC50) in assay [1] and in assay [2] were 100 to 500 nM and greater than 500 nM, respectively.

For the compound `CN(C)CCCN1CCC2(CCc3ccc(C(=O)NO)cc3C2)C1=O` (centres unmarked) [Compound I-25, 1′-(3-(dimethylamino)propyl)-N-hydroxy-2′-oxo-3,4-dihydro-1H-spiro[naphthalene-2,3′-pyrrolidine]-7-carboxamide], the IC50 in assay [1] was no more than 100 nM; in assay [2], greater than 500 nM.

As to `O=C(NO)c1ccc2c(c1)CC1(CC2)CCN(c2ccccc2)C1=O` (centres unmarked) [Compound I-26, N-hydroxy-2′-oxo-1′-phenyl-3,4-dihydro-1H-spiro[naphthalene-2,3′-pyrrolidine]-7-carboxamide], the figures for the IC50 in assay [1] and in assay [2] were no more than 100 nM and 100 to 500 nM, respectively.

As to `O=C(NO)c1ccc2c(c1)CC1(CC2)CCN(Cc2ccc(Cl)c(C(F)(F)F)c2)C1=O` (centres unmarked) [Compound I-27, 1′-(4-chloro-3-(trifluoromethyl)benzyl)-N-hydroxy-2′-oxo-3,4-dihydro-1H-spiro[naphthalene-2,3′-pyrrolidine]-7-carboxamide], the IC50 in assay [1] and in assay [2] was no more than 100 nM each time.

For `O=C(NO)c1ccc2c(c1)C[C@@]1(CC2)CCN(c2cccnc2)C1=O` [Compound I-28, (S)—N-hydroxy-2′-oxo-1′-(pyridin-3-yl)-3,4-dihydro-1H-spiro[naphthalene-2,3′-pyrrolidine]-7-carboxamide], the values for the 50% inhibitory concentration (IC50) in assay [1] and in assay [2] were no more than 100 nM and 100 to 500 nM, respectively.
